Assays:
Assay type in all cases: functional
Mus musculus [1] = assay: Analgesic activity in Mus musculus NMRI (mouse) assessed as inhibition of early phase of formalin-induced nociception at 30 umol/kg, ip administered 30 min before formalin injection relative to control
Mus musculus [2] = assay: Analgesic activity in Mus musculus NMRI (mouse) assessed as inhibition of late phase of formalin-induced nociception at 30 umol/kg, ip administered 30 min before formalin injection relative to mefenamic acid
Mus musculus [3] = assay: Analgesic activity in Mus musculus NMRI (mouse) assessed as inhibition of late phase of formalin-induced nociception at 30 umol/kg, ip administered 30 min before formalin injection relative to control

Compound	inhibition in vivo at 30 µmol/kg (Mus musculus [1]) [%]	Ratio (Mus musculus [2])	inhibition in vivo at 30 µmol/kg (Mus musculus [3]) [%]
S=c1[nH]nc(-c2ccccc2Sc2ccccc2)o1	13.1	0.95	71.3
Nc1nnc(-c2ccccc2Sc2ccccc2Cl)o1	26.7	0.89	67.1
S=c1[nH]nc(-c2ccccc2Sc2ccccc2)[nH]1	49.4	1.06	79.6
Nc1nnc(-c2ccccc2Sc2ccccc2)o1	16.6	0.85	63.7
Nc1nnc(-c2ccccc2[S+]([O-])c2ccccc2)o1 (stereo not given)	29.4	1.07	79.9
O=S(=O)(c1ccccc1)c1ccccc1-c1n[nH]c(=S)o1	41.9	0.77	58
S=c1[nH]nc(-c2ccccc2Sc2ccccc2Cl)o1	16.8	1.06	80.5
[O-][S+](c1ccccc1)c1ccccc1-c1n[nH]c(=S)o1 (stereo not given)	40.9	1.15	86.1
O=S(=O)(c1ccccc1)c1ccccc1-c1n[nH]c(=S)[nH]1	31.2	0.87	64.9
[O-][S+](c1ccccc1)c1ccccc1-c1n[nH]c(=S)[nH]1 (stereo not given)	31.7	0.85	63.3
Cc1cccc(Nc2ccccc2C(=O)O)c1C [MEFENAMIC ACID]	24.1		74.9
Nc1nnc(-c2ccccc2S(=O)(=O)c2ccccc2)o1	40.5	0.91	68.3

Source: ChEMBL document CHEMBL3044658, “Synthesis and analgesic activity of new 1,3,4-oxadiazoles and 1,2,4-triazoles” (2011)
